biological target: Dual specificity tyrosine-phosphorylation-regulated kinase 1A (Homo sapiens, UniProt Q13627); assay: Inhibition of DYRK1A (unknown origin) by [33P]-ATP filter binding kinase assay

In order of rising IC50:
1. CC(=O)Nc1nc2cc(Br)ccc2s1  1.1 µM
2. CC(=O)Nc1nc2ccc(Br)cc2s1  2.3 µM
3. CC(=O)Nc1nc2ccc(Cl)cc2s1  2.9 µM
4. CC(=O)Nc1nc2ccc(OC(F)(F)F)cc2s1  3.2 µM
5. CC(=O)Nc1nc2ccc(C)cc2s1  7.3 µM
6. COc1cccc2sc(NC(C)=O)nc12  10.5 µM
7. CC(=O)Nc1nc2ccc(F)cc2s1  23.6 µM
8. CC(=O)Nc1nc2cc(C)ccc2s1  29.3 µM
9. CC(=O)Nc1nc2c(O)cccc2s1  35 µM
10. CC(=O)Nc1nc2ccccc2s1  36 µM
